# In PubChem BioAssay (NCI):
#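 These data come from cells grown in 96-well plates and exposed to compound for 48 hours at five concentrations. At the TGI there is no net growth.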
# Key:
# Assay in all cases: NCI anticancer screen, dose series, 48 h
# NCI-H23 lung = test system: NCI-H23 lung
# HOP-62 NSCLC = test system: HOP-62 NSCLC
# SW-620 colon = test system: SW-620 colon
# 786-0 renal = test system: 786-0 renal
# SNB-78 CNS = test system: SNB-78 CNS
# DMS 114 small cell lung = test system: DMS 114 small cell lung
# DMS 273 small cell lung = test system: DMS 273 small cell lung
# CCRF-CEM leukemia = test system: CCRF-CEM leukemia
# A549 NSCLC = test system: A549 NSCLC
# SK-MEL-28 melanoma = test system: SK-MEL-28 melanoma
# COLO 205 colon = test system: COLO 205 colon
# PC-3 prostate = test system: PC-3 prostate
# KM20L2 colon = test system: KM20L2 colon
# DLD-1 colon = test system: DLD-1 colon
# TK-10 renal = test system: TK-10 renal
# HCT-116 colon = test system: HCT-116 colon
# OVCAR-5 ovarian = test system: OVCAR-5 ovarian
# SF-295 CNS = test system: SF-295 CNS
# CAKI-1 renal = test system: CAKI-1 renal
# HCT-15 colon = test system: HCT-15 colon
# EKVX NSCLC = test system: EKVX NSCLC
# MALME-3M melanoma = test system: MALME-3M melanoma
# HOP-18 NSCLC = test system: HOP-18 NSCLC
# SN12C renal = test system: SN12C renal
# NCI-H522 lung = test system: NCI-H522 lung
# M14 melanoma = test system: M14 melanoma
# NCI/ADR-RES ovarian = test system: NCI/ADR-RES ovarian
# T-47D breast = test system: T-47D breast
# NCI-H226 lung = test system: NCI-H226 lung
# M19-MEL melanoma = test system: M19-MEL melanoma
# U251 CNS = test system: U251 CNS
# SK-OV-3 ovarian = test system: SK-OV-3 ovarian
# LXFL 529 NSCLC = test system: LXFL 529 NSCLC
# SF-268 CNS = test system: SF-268 CNS
# HL-60(TB) leukemia = test system: HL-60(TB) leukemia
# OVCAR-8 ovarian = test system: OVCAR-8 ovarian
# HT29 colon = test system: HT29 colon
# DU-145 prostate = test system: DU-145 prostate
# OVCAR-3 ovarian = test system: OVCAR-3 ovarian
# IGROV1 ovarian = test system: IGROV1 ovarian
# HOP-92 NSCLC = test system: HOP-92 NSCLC
# A498 renal = test system: A498 renal
# HS 578T breast = test system: HS 578T breast
# SK-MEL-5 melanoma = test system: SK-MEL-5 melanoma
# MOLT-4 leukemia = test system: MOLT-4 leukemia
# MCF7 breast = test system: MCF7 breast
# ACHN renal = test system: ACHN renal
# UACC-257 melanoma = test system: UACC-257 melanoma
# KM12 colon = test system: KM12 colon
# RPMI-8226 leukemia = test system: RPMI-8226 leukemia
# NCI-H460 lung = test system: NCI-H460 lung
# LOX IMVI melanoma = test system: LOX IMVI melanoma
# SK-MEL-2 melanoma = test system: SK-MEL-2 melanoma
# MDA-MB-231 breast = test system: MDA-MB-231 breast
# MDA-N = test system: MDA-N
# SF-539 CNS = test system: SF-539 CNS
# BT-549 breast = test system: BT-549 breast
# UACC-62 melanoma = test system: UACC-62 melanoma
# SR leukemia = test system: SR leukemia
# OVCAR-4 ovarian = test system: OVCAR-4 ovarian
# K-562 leukemia = test system: K-562 leukemia
# SNB-75 CNS = test system: SNB-75 CNS
# RXF 393 renal = test system: RXF 393 renal
# HCC-2998 colon = test system: HCC-2998 colon
# SNB-19 CNS = test system: SNB-19 CNS
# MDA-MB-435 = test system: MDA-MB-435
# XF 498 CNS = test system: XF 498 CNS
# UO-31 renal = test system: UO-31 renal
smiles,measurement,setting,value
Cc1ccc2c(c1)CN(C(=O)CCC(=O)OCc1ccccc1)c1ccc(C)cc1CN2C(=O)CCC(=O)OCc1ccccc1,TGI,NCI-H23 lung,> 100 µM
same,TGI,HOP-62 NSCLC,> 100 µM
same,TGI,SW-620 colon,> 100 µM
same,TGI,786-0 renal,> 100 µM
same,TGI,SNB-78 CNS,> 100 µM
same,TGI,DMS 114 small cell lung,> 100 µM
same,TGI,DMS 273 small cell lung,> 100 µM
same,TGI,CCRF-CEM leukemia,> 100 µM
same,TGI,A549 NSCLC,> 100 µM
same,TGI,SK-MEL-28 melanoma,> 100 µM
same,TGI,COLO 205 colon,> 100 µM
same,TGI,PC-3 prostate,> 100 µM
same,TGI,KM20L2 colon,> 100 µM
same,TGI,DLD-1 colon,> 100 µM
same,TGI,TK-10 renal,> 100 µM
same,TGI,HCT-116 colon,> 100 µM
same,TGI,OVCAR-5 ovarian,> 100 µM
same,TGI,SF-295 CNS,> 100 µM
same,TGI,CAKI-1 renal,> 100 µM
same,TGI,HCT-15 colon,> 100 µM
same,TGI,EKVX NSCLC,> 100 µM
same,TGI,MALME-3M melanoma,> 100 µM
same,TGI,HOP-18 NSCLC,> 100 µM
same,TGI,SN12C renal,> 100 µM
same,TGI,NCI-H522 lung,> 100 µM
same,TGI,M14 melanoma,> 100 µM
same,TGI,NCI/ADR-RES ovarian,> 100 µM
same,TGI,T-47D breast,> 100 µM
same,TGI,NCI-H226 lung,> 100 µM
same,TGI,M19-MEL melanoma,> 100 µM
same,TGI,U251 CNS,> 100 µM
same,TGI,SK-OV-3 ovarian,> 100 µM
same,TGI,LXFL 529 NSCLC,> 100 µM
same,TGI,SF-268 CNS,> 100 µM
same,TGI,HL-60(TB) leukemia,> 100 µM
same,TGI,OVCAR-8 ovarian,> 100 µM
same,TGI,HT29 colon,> 100 µM
same,TGI,DU-145 prostate,> 100 µM
same,TGI,OVCAR-3 ovarian,> 100 µM
same,TGI,IGROV1 ovarian,> 100 µM
same,TGI,HOP-92 NSCLC,> 100 µM
same,TGI,A498 renal,> 100 µM
same,TGI,HS 578T breast,> 100 µM
same,TGI,SK-MEL-5 melanoma,> 100 µM
same,TGI,MOLT-4 leukemia,> 100 µM
same,TGI,MCF7 breast,> 100 µM
same,TGI,ACHN renal,> 100 µM
same,TGI,UACC-257 melanoma,> 100 µM
same,TGI,KM12 colon,> 100 µM
same,TGI,RPMI-8226 leukemia,> 100 µM
same,TGI,NCI-H460 lung,> 100 µM
same,TGI,LOX IMVI melanoma,> 100 µM
same,TGI,SK-MEL-2 melanoma,> 100 µM
same,TGI,MDA-MB-231 breast,> 100 µM
same,TGI,MDA-N,> 100 µM
same,TGI,SF-539 CNS,> 100 µM
same,TGI,BT-549 breast,> 100 µM
same,TGI,UACC-62 melanoma,> 100 µM
same,TGI,SR leukemia,> 100 µM
same,TGI,OVCAR-4 ovarian,> 100 µM
same,TGI,K-562 leukemia,> 100 µM
same,TGI,SNB-75 CNS,62.6 µM
same,TGI,RXF 393 renal,> 100 µM
same,TGI,HCC-2998 colon,> 100 µM
same,TGI,SNB-19 CNS,> 100 µM
same,TGI,MDA-MB-435,> 100 µM
CC(C)N1CN(C(C(=O)N[C@@H]2C(=O)N3C2SC(C)(C)C3C(=O)O)c2ccccc2)CSC1=S (stereo partly drawn),TGI,NCI-H23 lung,> 100 µM
same,TGI,HOP-62 NSCLC,> 100 µM
same,TGI,786-0 renal,> 100 µM
same,TGI,SNB-78 CNS,> 100 µM
same,TGI,DMS 114 small cell lung,> 100 µM
same,TGI,DMS 273 small cell lung,> 100 µM
same,TGI,CCRF-CEM leukemia,> 100 µM
same,TGI,SK-MEL-28 melanoma,> 100 µM
same,TGI,XF 498 CNS,> 100 µM
same,TGI,COLO 205 colon,> 100 µM
same,TGI,KM20L2 colon,> 100 µM
same,TGI,DLD-1 colon,> 100 µM
same,TGI,TK-10 renal,> 100 µM
same,TGI,HCT-116 colon,> 100 µM
same,TGI,OVCAR-5 ovarian,> 100 µM
same,TGI,SF-295 CNS,> 100 µM
same,TGI,CAKI-1 renal,> 100 µM
same,TGI,HCT-15 colon,> 100 µM
same,TGI,EKVX NSCLC,> 100 µM
same,TGI,MALME-3M melanoma,> 100 µM
same,TGI,HOP-18 NSCLC,> 100 µM
same,TGI,SN12C renal,> 100 µM
same,TGI,NCI-H522 lung,72.1 µM
same,TGI,M14 melanoma,> 100 µM
same,TGI,UO-31 renal,> 100 µM
same,TGI,M19-MEL melanoma,> 100 µM
same,TGI,U251 CNS,> 100 µM
same,TGI,SK-OV-3 ovarian,> 100 µM
same,TGI,LXFL 529 NSCLC,> 100 µM
same,TGI,SF-268 CNS,> 100 µM
same,TGI,HL-60(TB) leukemia,> 100 µM
same,TGI,OVCAR-8 ovarian,> 100 µM
same,TGI,HT29 colon,> 100 µM
same,TGI,OVCAR-3 ovarian,> 100 µM
same,TGI,IGROV1 ovarian,> 100 µM
same,TGI,HOP-92 NSCLC,> 100 µM
same,TGI,A498 renal,> 100 µM
same,TGI,SK-MEL-5 melanoma,> 100 µM
same,TGI,MOLT-4 leukemia,> 100 µM
same,TGI,ACHN renal,> 100 µM
same,TGI,UACC-257 melanoma,> 100 µM
same,TGI,KM12 colon,> 100 µM
same,TGI,RPMI-8226 leukemia,> 100 µM
same,TGI,NCI-H460 lung,> 100 µM
same,TGI,LOX IMVI melanoma,> 100 µM
same,TGI,SK-MEL-2 melanoma,> 100 µM
same,TGI,SF-539 CNS,> 100 µM
same,TGI,UACC-62 melanoma,> 100 µM
same,TGI,OVCAR-4 ovarian,> 100 µM
same,TGI,K-562 leukemia,> 100 µM
same,TGI,SNB-75 CNS,> 100 µM
same,TGI,SNB-19 CNS,> 100 µM
